No end group written: not given here.
Assays:
[1] = system: SH-SY5Y; assay: 2D neuronal cell culture: cell attachment and neurite outgrowth; format: cell-based; settings: for neurite outgrowth without RA / neurite outgrowth with RA: 14-day culture; for neurite outgrowth with RA: 10 μM retinoic acid from day 7; for cell attachment on surface: 15% (wt) gel or laminin coated plate
Protocol: Cells, SH-SY5Y (ATCC, CRL-2266), were cultured in DMEM/F12 (1:1) medium with 10% fetal bovine serum (FBS), and 1% antibiotics. The cells were incubated in a humidified atmosphere with 5% CO2 at 37° C. The medium was refreshed every three days until the cells reached 95% confluence. The cells were harvested from the petri dish by incubation in 1 ml of trypsin solution (0.25%) for 5 min, neutralizing with 5 ml of serum-supplemented medium, centrifugation and removal of supernatant. The cell pellets were resuspended in serum-supplemented medium and 5×10^3 cells was used immediately for 2D neuronal cell culture.
Fifty μl of each solution (15%, wt) of pure reverse thermal gel and IKVAVS-GEL was transferred into 96-well plate on 37° C. heating plate. After 5 min, cell suspension (5×10^3 cells) in 150 μl of medium was added on top of the gel. For a control, the same number of cell suspension in 200 μl of medium was transferred into laminin coated 96-well plate. A 100 μl of medium was refreshed every two days. The cell growth was examined on a microscope. After 7-day culture, 10 μM of retinoic acid (RA) was added and neurite outgrowth was monitored on a microscope.

[2] = system: Sprague Dawley rats; settings: rat, in vivo, sc
Protocol: In vivo biocompatibility was evaluated in Sprague Dawley rats.

[3] = buffer
Protocol: The storage modus (G′) of the polymer solutions in phosphate buffered saline (PBS) solution was measured by rheometer from 20° C. to 55° C.

Row | Substance | neurite outgrowth without RA [1] | neurite outgrowth with RA [1] | cell attachment on surface [1] | inflammatory response [2] | temperature range in which it remained gel [3]
1 | IKVAVS-GEL: IKVAVS (SEQ ID NO: 21) conjugated reverse thermal gel (also: conjugated to reverse thermal gel; listed as Homo sapiens) | much better than that on pure reverse thermal gel | much better than that on pure reverse thermal gel | attached well | – | –
2 | laminin [reference compound] | some short neurite outgrowth | much dense and longer neurite outgrowth | attached very well | – | –
3 | poly(ethylene glycol)-poly(serinol hexamethylene urethane) [ESHU] | – | – | – | well tolerated inflammatory response | 37-40 °C

— patent US9144598B2, “Reverse thermal gels and their use in cell therapy” (University of Pittsburgh—Of the Commonwealth System of …, priority 2010, dated 2015)
